Literature values, collected in US9375001B1, “Granular fly bait” (Wellmark International, priority 2012, dated 2016).
Read-outs that look alike come from different tables or passages of the source.

## OC[C@H]1O[C@@](CO)(O[C@H]2O[C@H](CO)[C@@H](O)[C@H](O)[C@H]2O)[C@@H](O)[C@@H]1O [Sucrose]
50 ° C.
  Solubility of Sucrose in Water, Sucrose/water: 2.59 wt/wt
55 ° C.
  Solubility of Sucrose in Water, Sucrose/water: 2.73 wt/wt
60 ° C.
  Solubility of Sucrose in Water, Sucrose/water: 2.89 wt/wt
65 ° C.
  Solubility of Sucrose in Water, Sucrose/water: 3.06 wt/wt
70 ° C.
  Solubility of Sucrose in Water, Sucrose/water: 3.25 wt/wt
75 ° C.
  Solubility of Sucrose in Water, Sucrose/water: 3.46 wt/wt
80 ° C.
  Solubility of Sucrose in Water, Sucrose/water: 3.69 wt/wt
85 ° C.
  Solubility of Sucrose in Water, Sucrose/water: 3.94 wt/wt
90 ° C.
  Solubility of Sucrose in Water, Sucrose/water: 4.20 wt/wt
